{"source": "patent US11419806B2", "about": "“Prebiotic oral care methods using a saccharide” (Colgate-Palmolive Company, priority 2013, dated 2022)", "format_in_all_cases": "cell-based", "key": {"[1]": {"test_system": "beneficial oral bacteria and pathogenic oral bacteria", "assay": "Microarray screen, overall prebiotic assessment", "conditions": "48 hrs", "protocol": "Substrates that were able to increase the metabolic activity of at least one of the above beneficial bacteria while not or only minimally increasing the growth of the pathogenic bacteria are considered to be prebiotic substrates.\n(§1) The extent of metabolic activity of the tested bacteria in the presence of the above-mentioned saccharides after 24 hours and 48 hours was investigated through a high throughput phenotype microarray system (PM) for microbial cells (Biolog Inc.). Each PM can contain up to 95 different biochemical compounds (e.g. saccharides) that may act as substrates for bacteria as well as one negative control, not containing the substrates. Microarray plates were used in which the different wells of each plate were pre-loaded (by the manufacturer, Biolog Inc.) with different saccharides to be tested. Each bacterial species was tested using a separate microarray plate. Thus, a single bacterial species was tested with a variety of saccharides on each particular plate. The microarrays are based on redox technology, using cell respiration as a universal reporter. Active cell respiration results in the reduction of a tetrazolium dye and in the formation of a strong color—for example, when using the tetrazolium dye “Biolog Redox Dye Mix D”, the color changes from transparent/colorless to purple when the dye is reduced. The observation of this color change indicates which of the substrates improve the metabolic activity and health of the cells.\n(§2) Each bacterial species was collected from blood agar plates (incubated for 48 hours anaerobically at 37° C.) and transferred to an IF-0 Base inoculation fluid (Biolog Inc.), which is a nutritionally poor medium. The resulting cell suspension was adjusted to a transmittance of 42% (relative to the transmittance of the base inoculation fluid with no bacterial species present) at 492 nm using a BioRad SmartSpec 3000 Photometer (the adjustment being effected by adding either further inoculation fluid or further bacteria until the transmittance of 42% was achieved). A 1:5 dilution of this suspension was prepared by mixing 3 mL of the 42% transmittance cell suspension with 15 mL of an inoculation fluid (which inoculation fluid was formed by mixing 11.6 mL sterile water, 62.5 mL IF-0 base inoculation fluid and 0.9 mL of the tetrazolium dye “Biolog Redox Dye mix D”), resulting in a final cell density which was equal to 85% transmittance using a BioRad SmartSpec 3000 Photometer. For each of the saccharides tested, the microarray plate (obtained from the supplier (Biolog Inc.) with saccharides already present in the relevant wells in powder form) was directly inoculated with 100 μL/well of this 85% transmittance cell suspension.\n(§3) All plates were incubated in an anaerobic atmosphere at 37° C. Color changes were measured spectrophotometrically at 492 nm (Thermo Scientific Multiskan Ascent) at 24 hrs and 48 hrs using the same plate at both time points. […] After 24 hrs and 48 hrs under continuous shaking in a Multiscan microplate reader, the optical density (OD) of the synthetic medium at 24 hours and 48 hours was measured (using the microplate reader) at a wavelength of 492 nm for each combination of bacterium/saccharide, and for each of their respective controls (i.e. which contained the particular bacterium but no saccharide).\n(§4) The experiment was carried out three times for each combination of bacterium with saccharide, with each repeat being carried out on a different day (thus providing three biological replicas). The controls were also carried out three times, as above. The values shown are the average (mean) of the three single values obtained (as detailed above) for each combination of bacterium with saccharide, at 24 hrs and at 48 hrs.\nThis value was selected in order to exclude low-stimulating metabolites and avoid false positive results."}, "Capnocytophaga sputigena": {"test_system": "Capnocytophaga sputigena", "assay": "Phenotype microarray metabolic activity", "conditions": "C sputigena", "protocol": "as §1, §2, §3, §4"}, "S sanguinis": {"test_system": "S sanguinis", "assay": "Phenotype microarray metabolic activity", "protocol": "as §1, §2, §3, §4"}, "Prevotella intermedia": {"test_system": "Prevotella intermedia", "assay": "Phenotype microarray metabolic activity", "conditions": "P intermedia", "protocol": "as §1, §2, §3, §4"}, "Streptococcus mutans": {"test_system": "Streptococcus mutans", "assay": "Phenotype microarray metabolic activity", "conditions": "S mutans", "protocol": "as §1, §2, §3, §4"}, "Streptococcus gordonii": {"test_system": "Streptococcus gordonii", "assay": "Phenotype microarray metabolic activity", "conditions": "S gordonii", "protocol": "as §1, §2, §3, §4"}, "Streptococcus mitis": {"test_system": "Streptococcus mitis", "assay": "Phenotype microarray metabolic activity", "conditions": "S mitis", "protocol": "as §1, §2, §3, §4"}, "Fusobacterium nucleatum": {"test_system": "Fusobacterium nucleatum", "assay": "Phenotype microarray metabolic activity", "conditions": "F nucleatum", "protocol": "as §1, §2, §3, §4"}, "[2]": {"test_system": "Aggregatibacter actinomycetemcomitans", "assay": "Phenotype microarray metabolic activity", "conditions": "A actinomycetemcomitans", "protocol": "as §1, §2, §3, §4"}, "Streptococcus salivarius": {"test_system": "Streptococcus salivarius", "assay": "Phenotype microarray metabolic activity", "conditions": "S salivarius", "protocol": "as §1, §2, §3, §4"}, "Porphyromonas gingivalis": {"test_system": "Porphyromonas gingivalis", "assay": "Phenotype microarray metabolic activity", "conditions": "P gingivalis", "protocol": "as §1, §2, §3, §4"}, "Tannerella forsythia": {"test_system": "Tannerella forsythia", "assay": "Phenotype microarray metabolic activity", "conditions": "T forsythia", "protocol": "as §1, §2, §3, §4"}, "Actinomyces naeslundii": {"test_system": "Actinomyces naeslundii", "assay": "Phenotype microarray metabolic activity", "conditions": "A naeslundii", "protocol": "as §1, §2, §3, §4"}, "Veillonella parvula": {"test_system": "Veillonella parvula", "assay": "Phenotype microarray metabolic activity", "conditions": "V parvula", "protocol": "as §1, §2, §3, §4"}, "Streptococcus sobrinus": {"test_system": "Streptococcus sobrinus", "assay": "Phenotype microarray metabolic activity", "conditions": "S sobrinus", "protocol": "as §1, §2, §3, §4"}, "Actinomyces viscosus": {"test_system": "Actinomyces viscosus", "assay": "Phenotype microarray metabolic activity", "conditions": "A viscosus", "protocol": "as §1, §2, §3, §4"}}, "data": [{"smiles": "OC[C@H]1O[C@@](CO)(O[C@H]2O[C@H](CO)[C@@H](O)[C@H](O)[C@H]2O)[C@@H](O[C@H]2O[C@H](CO)[C@@H](O)[C@H](O)[C@H]2O)[C@@H]1O", "note": "[D-Melezitose, (2R,3R,4S,5S,6R)-2-[[(2S,3S,4R,5R)-4-hydroxy-2,5-bis(hydroxymethyl)-3-[[(2R,3R,4S,5S,6R)-3,4,5-trihydroxy-6-(hydroxymethyl)-2-tetrahydropyranyl]oxy]-2-tetrahydrofuranyl]oxy]-6-(hydroxymethyl)tetrahydropyran-3,4,5-triol]", "values": [{"measurement": "prebiotic effects (metabolic activity, threshold value 2)", "setting": "[1]", "result": "exhibited prebiotic effects"}, {"measurement": "metabolic activity: OD 492 nm divided by OD of control (control = 1)", "setting": "Capnocytophaga sputigena; 24 hrs", "result": 0.5937}, {"measurement": "metabolic activity: OD 492 nm divided by OD of control (control = 1)", "setting": "Capnocytophaga sputigena; 48 hrs", "result": 0.9124}, {"measurement": "metabolic activity: OD 492 nm divided by OD of control (control = 1)", "setting": "S sanguinis; 24 hrs", "result": 1.0227}, {"measurement": "metabolic activity: OD 492 nm divided by OD of control (control = 1)", "setting": "S sanguinis; 48 hrs", "result": 1.0532}, {"measurement": "metabolic activity: OD 492 nm divided by OD of control (control = 1)", "setting": "Prevotella intermedia; 24 hrs", "result": 1.0189}, {"measurement": "metabolic activity: OD 492 nm divided by OD of control (control = 1)", "setting": "Prevotella intermedia; 48 hrs", "result": 0.9864}, {"measurement": "metabolic activity: OD 492 nm divided by OD of control (control = 1)", "setting": "Streptococcus mutans; 24 hrs", "result": 1.0420}, {"measurement": "metabolic activity: OD 492 nm divided by OD of control (control = 1)", "setting": "Streptococcus mutans; 48 hrs", "result": 0.9402}, {"measurement": "metabolic activity: OD 492 nm divided by OD of control (control = 1)", "setting": "Streptococcus gordonii; 24 hrs", "result": 1.0421}, {"measurement": "metabolic activity: OD 492 nm divided by OD of control (control = 1)", "setting": "Streptococcus gordonii; 48 hrs", "result": 0.9733}, {"measurement": "metabolic activity: OD 492 nm divided by OD of control (control = 1)", "setting": "Streptococcus mitis; 24 hrs", "result": 1.1736}, {"measurement": "metabolic activity: OD 492 nm divided by OD of control (control = 1)", "setting": "Streptococcus mitis; 48 hrs", "result": 1.0570}, {"measurement": "metabolic activity: OD 492 nm divided by OD of control (control = 1)", "setting": "Fusobacterium nucleatum; 24 hrs", "result": 0.9719}, {"measurement": "metabolic activity: OD 492 nm divided by OD of control (control = 1)", "setting": "Fusobacterium nucleatum; 48 hrs", "result": 0.8307}, {"measurement": "metabolic activity: OD 492 nm divided by OD of control (control = 1)", "setting": "[2]; 24 hrs", "result": 0.8425}, {"measurement": "metabolic activity: OD 492 nm divided by OD of control (control = 1)", "setting": "[2]; 48 hrs", "result": 0.7710}, {"measurement": "metabolic activity: OD 492 nm divided by OD of control (control = 1)", "setting": "Streptococcus salivarius; 24 hrs", "result": 1.0195}, {"measurement": "metabolic activity: OD 492 nm divided by OD of control (control = 1)", "setting": "Streptococcus salivarius; 48 hrs", "result": 0.9869}, {"measurement": "metabolic activity: OD 492 nm divided by OD of control (control = 1)", "setting": "Porphyromonas gingivalis; 24 hrs", "result": 0.7783}, {"measurement": "metabolic activity: OD 492 nm divided by OD of control (control = 1)", "setting": "Porphyromonas gingivalis; 48 hrs", "result": 0.7811}, {"measurement": "metabolic activity: OD 492 nm divided by OD of control (control = 1)", "setting": "Tannerella forsythia; 24 hrs", "result": 1.0374}, {"measurement": "metabolic activity: OD 492 nm divided by OD of control (control = 1)", "setting": "Tannerella forsythia; 48 hrs", "result": 0.9912}, {"measurement": "metabolic activity: OD 492 nm divided by OD of control (control = 1)", "setting": "Actinomyces naeslundii; 24 hrs", "result": 1.5398}, {"measurement": "metabolic activity: OD 492 nm divided by OD of control (control = 1)", "setting": "Actinomyces naeslundii; 48 hrs", "result": 2.0357}, {"measurement": "metabolic activity: OD 492 nm divided by OD of control (control = 1)", "setting": "Veillonella parvula; 24 hrs", "result": 0.9056}, {"measurement": "metabolic activity: OD 492 nm divided by OD of control (control = 1)", "setting": "Veillonella parvula; 48 hrs", "result": 0.7447}, {"measurement": "metabolic activity: OD 492 nm divided by OD of control (control = 1)", "setting": "Streptococcus sobrinus; 24 hrs", "result": 1.1016}, {"measurement": "metabolic activity: OD 492 nm divided by OD of control (control = 1)", "setting": "Streptococcus sobrinus; 48 hrs", "result": 1.0504}, {"measurement": "metabolic activity: OD 492 nm divided by OD of control (control = 1)", "setting": "Actinomyces viscosus; 24 hrs", "result": 1.7502}, {"measurement": "metabolic activity: OD 492 nm divided by OD of control (control = 1)", "setting": "Actinomyces viscosus; 48 hrs", "result": 2.9576}]}]}
